Measured values as given in patent US11969433B2, “Compositions and methods for muscle regeneration using prostaglandin E2” (The Board of Trustees of the Leland Stanford Junior …, priority 2016, dated 2024).

What was measured:
MuSCs [1] = assay: MuSC transplantation into injured TA muscle, engraftment by bioluminescence imaging; format: in vivo, mouse
endogenous MuSCs = assay: Endogenous MuSCs by Pax7-luciferase BLI after cardiotoxin injury; format: in vivo, mouse
Method: We performed bioluminescence imaging (BLI) using a Xenogen-100 system, as previously described^1,5,6. Briefly, we anesthetized mice using isofluorane inhalation and administered 120 μL D-luciferin (0.1 mmol kg^−1, reconstituted in PBS; Caliper LifeSciences) by intraperitoneal injection. We acquired BLI using a 60 s exposure at F-stop=1.0 at 5 minutes after luciferin injection. Digital images were recorded and analyzed using Living Image software (Caliper LifeSciences). We analyzed images with a consistent region-of-interest (ROI) placed over each hindlimb to calculate a bioluminescence signal. We calculated a bioluminescence signal in radiance (p s^−1 cm^−2 sr^−1) value of 10^4 to define an engraftment threshold. This radiance threshold of 10^4 is approximately equivalent to the total flux threshold in p/s reported previously. This BLI threshold corresponds to the histological detection of one or more GFP+ myofibers^1,5,6. We performed BLI imaging every week after transplantation.
For Pax7^CreERT2; Rosa26-LSL-Luc mice experiments, we treated mice with five consecutive daily intraperitoneal injections of tamoxifen to activate luciferase expression under the control of the Pax7 promoter. A week after the last tamoxifen injection, mice were subjected to intramuscular injection of 10 μl of cardiotoxin (10 μM; Latoxan), which we designated as day 0 of the assay. […]

[2] = tested on: tibialis anterior (TA) muscle; assay: Intramuscular dmPGE2 after cardiotoxin injury of TA, histology (PAX7, myofiber CSA); format: in vivo, mouse
Method: We used an injury model entailing intramuscular injection of 10 μl of notexin (10 μg ml^−1; Latoxan) or cardiotoxin (10 μM; Latoxan) into the TA muscle. For cryoinjury, an incision was made in the skin overlying the TA muscle and a copper probe, chilled in liquid nitrogen, was applied to the TA muscle for three 10 s intervals, allowing the muscle to thaw between each application of the cryoprobe. When indicated, 48 hr after injury either 16,16-Dimethyl Prostaglandin E2 (dmPGE2) (13 nmol, Tocris, catalog #4027) or vehicle control (PBS) was injected into the TA muscle. The contralateral TA was used as an internal control. We collected tissues 14 days post-injury for analysis.
We collected and prepared recipient TA muscle tissues for histology as previously described^5,6. We incubated transverse sections with anti-LAMININ (Millipore, clone A5, catalog #05-206, 1:200), and anti-PAX7 (Santa Cruz Biotechnology, catalog #sc-81648, 1:50) primary antibodies and then with AlexaFluor secondary Antibodies (Jackson ImmunoResearch Laboratories, 1:200). We counterstained nuclei with DAPI (Invitrogen). We acquired images with an AxioPlan2 epifluorescent microscope (Carl Zeiss Microimaging) with Plan NeoFluar 10×/0.30NA or 20×/0.75NA objectives (Carl Zeiss) and an ORCA-ER digital camera (Hamamatsu Photonics) controlled by the SlideBook (3i) software. The images were cropped using Adobe Photoshop with consistent contrast adjustments across all images from the same experiment. The image composites were generated using Adobe Illustrator. We analyzed the number of PAX7 positive cells using the MetaMorph Image Analysis software (Molecular Devices), and the fiber area using the Baxter Algorithms for Myofiber Analysis that identified the fibers and segmented the fibers in the image to analyze the area of each fiber. For PAX7 quantification we examined serial sections spanning a depth of at least 2 mm of the TA. For fiber area at least 10 fields of LAMININ-stained myofiber cross-sections encompassing over 400 myofibers were captured for each mouse as above. Data analyses were blinded. The researchers performing the imaging acquisition and scoring were unaware of treatment condition given to sample groups analyzed.

[3] = tested on: gastrocnemius (GA) muscle; assay: In vivo muscle force after downhill treadmill run, aged mice (Example 1); parameters: species or system mouse; settings: dmPGE2 daily 5 days in week 1, force at week 5
Method: Aged mice (18 mo.) were subjected to downhill treadmill run for 2 consecutive weeks. During week 1, mice ran daily for 5 days and rested on days 6 and 7. Two hours after each treadmill run during week 1, each (lateral and medial) gastrocnemius (GA) muscle from both legs of each mouse was injected with a dose of either PBS (vehicle control) or 13 nM dmPGE2 (experimental group). During week 2, mice were subjected to 5 days treadmill run only. The treadmill run was performed using the Exer3/6 (Columbus Instruments). Mice ran for 10 minutes on the treadmill at 20 degrees downhill, starting at a speed of 7 meters/min. After 3 min, the speed was increased by 1 meter/min to a final speed of 14 meter/min. […] Force measurements were on the GA muscles at week 5 based on a protocol published previously^5. […] Data were collected with a PCI-6251 acquisition card (National Instruments) and analyzed in Matlab. We calculated specific force values by normalizing the force measurements by the muscle physiological cross-sectional areas (PCSAs), which were similar between the control and the experimental PGE2 treated group (Table 2). PCSA (measured in mm^2) was calculated according to the following equation^12: PCSA (mm^2)=[mass (g)×Cos θ]÷[ρ(g/mm^3)×fiber length (mm)], where θ is pennation angle of the fiber and ρ is muscle density (0.001056 g/mm^3). […]

[4] = tested on: hematopoietic, liver, and colon tissues; settings: delivery of 15-PGDH inhibitor; cited from earlier work
aged MuSCs = assay: Aged MuSC numbers after acute 24 hr treatment, hydrogel culture; format: cell-based, mouse; settings: 1-day pulse; PGE2 10 ng/ml or SW033291 1 μM; assayed day 7
Method: (§1) Following isolation, we resuspended MuSCs in myogenic cell culture medium containing DMEM/F10 (50:50), 15% FBS, 2.5 ng ml^−1 fibroblast growth factor-2 (FGF-2 also known as bFGF) and 1% penicillin-streptomycin. We seeded MuSC suspensions at a density of 500 cells per cm^2 surface area. We maintained cell cultures at 37° C. in 5% CO2 and changed medium daily. […]
(§2) To assay proliferation, we used three different assays (hemocytometer, VisionBlue, and EdU). […] For hemocytometer cell number count, we collected cells at indicated timepoints by incubation with 0.5% trypsin in PBS for 5 min at 37° C. and quantified them using a hemocytometer at least 3 times. Additionally, we used the VisionBlue Quick Cell Viability Fluorometric Assay Kit (BioVision, catalog #K303) as a readout for cell growth in culture. Briefly, we incubated MuSCs with 10% VisionBlue in culture medium for 3 h, and measured fluorescence intensity on a fluorescence plate reader (Infinite M1000 PRO, Tecan) at Ex=530-570 nm, Em=590-620 nm. […] We quantified EdU positive cells using the MetaMorph Image Analysis software (Molecular Devices). Data analyses were blinded, where researchers performing cell scoring were unaware of the treatment condition given to sample groups analyzed.

MuSCs [5] = assay: Quantitative RT-PCR of MuSC transcripts; format: cell-based, mouse; settings: aged MuSCs, 1-day pulse
Description: We isolated RNA from MuSCs using the RNeasy Micro Kit (Qiagen). For muscle samples, we snap froze the tissue in liquid nitrogen, homogenized the tissues using a mortar and pestle, followed by syringe and needle trituration, and then isolated RNA using Trizol (Invitrogen). We reverse-transcribed cDNA from total mRNA from each sample using the SensiFAST™ cDNA Synthesis Kit (Bioline). We subjected cDNA to RT-PCR using SYBR Green PCR Master Mix (Applied Biosystems) or TaqMan Assays (Applied Biosystems) in an ABI 7900HT Real-Time PCR System (Applied Biosystems). We cycled samples at 95° C. for 10 min and then 40 cycles at 95° C. for 15 s and 60° C. for 1 min. To quantify relative transcript levels, we used 2-ΔΔCt to compare treated and untreated samples and expressed the results relative to Gapdh. For SYBR Green qRT-PCR, we used the following primer sequences: Gapdh. forward 5′-[…]-3′ (SEQ ID NO: 1), reverse 5′-CCCTTTTGGCTCCACCCT-3′ (SEQ ID NO: 2); Hpgd, forward 5′-[…]-3′ (SEQ ID NO: 3), reverse 5′-[…]-3′ (SEQ ID NO: 4); Ptges, forward 5′-GCTGTCATCACAGGCCAGA-3′ (SEQ ID NO: 5), reverse 5′-[…]-3′ (SEQ ID NO: 6); Ptges2, forward 5′-[…]-3′ (SEQ ID NO: 7), reverse 5′-[…]-3′ (SEQ ID NO: 8); Ptger1, forward 5′ GTGGTGTCGTGCATCTGCT-3′ (SEQ ID NO: 9), reverse, 5′ […]-3′ (SEQ ID NO: 10), and Ptger2, forward 5′-[…]-3′ (SEQ ID NO: 11), reverse 5′-[…]-3′ (SEQ ID NO: 12). TaqMan Assays (Applied Biosystems) were used to quantify Pax7. Myogenin. Slco2a1 (PGT), Ptger3 and Ptger4 in samples according to the manufacturer instructions with the TaqMan Universal PCR Master Mix reagent kit (Applied Biosystems). Transcript levels were expressed relative to Gapdh levels. For SYBR Green qPCR, Gapdh qPCR was used to normalize input cDNA samples. For Taqman qPCR, multiplex qPCR enabled target signals (FAM) to be normalized individually by their internal Gapdh signals (VIC).

MuSCs [6] = assay: Young MuSC numbers after acute PGE2 treatment, hydrogel culture (hemocytometer count); format: cell-based, mouse; settings: ONO-AE3-208 1 μM, PGE2 10 ng/ml, 24 hr
Method: as §1, §2

Tibialis anterior (TA) = assay: Muscle twitch force after injury and indomethacin injection; format: in vivo, mouse; settings: day 14 post-injury, indomethacin into cardiotoxin-injured muscles

CCCCC(C)(C)[C@H](O)/C=C/[C@H]1[C@H](O)CC(=O)[C@@H]1C/C=C\CCCC(=O)O [dmPGE2, 16,16-dimethyl prostaglandin E2]
engraftment of aged MuSCs relative to controls (MuSCs [1]; aged MuSCs (250 cells) coinjected with dmPGE2): significantly enhanced
engraftment of young MuSCs relative to controls (MuSCs [1]; freshly sorted young MuSCs (250 cells) coinjected with 13 nmol dmPGE2): significantly enhanced
endogenous MuSCs assayed by Pax7-luciferase BLI (endogenous MuSCs; dmPGE2 3 days after cardiotoxin injury): Increase
myofiber sizes ([2]; aged mice, fourteen days post-injury): increase
increase in the number of endogenous MuSCs ([2]; aged mice, fourteen days post-injury, single dmPGE2 injection): 24±2%
distribution of myofibers (cross-sectional area) ([2]; young mice, day 14 post injury): shifted toward larger sizes
increase in endogenous PAX7-expressing MuSCs ([2]; young mice, fourteen days post cardiotoxin injury, single dmPGE2 bolus): 60+15%
effect on endogenous MuSCs in the absence of injury ([2]; young mice, no injury): no effect
specific tetanic force [3]: significantly increased
specific twitch force [3]: significantly increased

CCCC[S+]([O-])c1sc2nc(-c3cccs3)cc(-c3ccccc3)c2c1N (stereo not shown) [SW033291]
regeneration of hematopoietic, liver, and colon tissues [4]: enhance regeneration
proliferation of aged MuSCs (aged MuSCs): increase
Pax7 expression in aged MuSCs (MuSCs [5]): maintenance

CC(C(=O)Nc1cc(C#N)ccc1CCCC(=O)O)c1ccc(F)c2ccccc12 (stereo not shown) [ONO-AE3-208]
proliferation induced by PGE2 in presence of EP4 antagonist (MuSCs [6]): blunted

COc1ccc2c(c1)c(CC(=O)O)c(C)n2C(=O)c1ccc(Cl)cc1 [indomethacin]
luciferase activity (muscle stem cell activation) (endogenous MuSCs; indomethacin injected three days post-cardiotoxin injury): significant decrease
Twitch force compared to control group (Tibialis anterior (TA)): significant loss
